Here are results for 23 compounds from patent US9802937B2, “Substituted pyrazolo{4,3-D}pyrimidines as kinase inhibitors” (ORIGENIS GMBH, priority 2011, dated 2017).

In one experiment the target is LRRK2 (Homo sapiens, UniProt Q5S007). In words: LRRK2-LRRK2 G2019S-Assay (LanthaScreen Eu Kinase Binding Assay). As to conditions: 5 nM LRRK2 or their mutants, 10 nM tracer 236, RT 1 h; read-out: LRRK2 Activities: IC50. The gist of the method: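 TR-FRET tracer-displacement binding assay with 5 nM LRRK2 or mutant, 2 nM Eu-anti-GST antibody and 10 nM tracer 236 in kinase buffer A. Incubated 1 h at RT; 665/615 nm emission ratio read (ex 340 nm). IC50 from variable-slope sigmoidal fit.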
Sequence of LRRK2 (Q5S007 970-2527 limits assumed): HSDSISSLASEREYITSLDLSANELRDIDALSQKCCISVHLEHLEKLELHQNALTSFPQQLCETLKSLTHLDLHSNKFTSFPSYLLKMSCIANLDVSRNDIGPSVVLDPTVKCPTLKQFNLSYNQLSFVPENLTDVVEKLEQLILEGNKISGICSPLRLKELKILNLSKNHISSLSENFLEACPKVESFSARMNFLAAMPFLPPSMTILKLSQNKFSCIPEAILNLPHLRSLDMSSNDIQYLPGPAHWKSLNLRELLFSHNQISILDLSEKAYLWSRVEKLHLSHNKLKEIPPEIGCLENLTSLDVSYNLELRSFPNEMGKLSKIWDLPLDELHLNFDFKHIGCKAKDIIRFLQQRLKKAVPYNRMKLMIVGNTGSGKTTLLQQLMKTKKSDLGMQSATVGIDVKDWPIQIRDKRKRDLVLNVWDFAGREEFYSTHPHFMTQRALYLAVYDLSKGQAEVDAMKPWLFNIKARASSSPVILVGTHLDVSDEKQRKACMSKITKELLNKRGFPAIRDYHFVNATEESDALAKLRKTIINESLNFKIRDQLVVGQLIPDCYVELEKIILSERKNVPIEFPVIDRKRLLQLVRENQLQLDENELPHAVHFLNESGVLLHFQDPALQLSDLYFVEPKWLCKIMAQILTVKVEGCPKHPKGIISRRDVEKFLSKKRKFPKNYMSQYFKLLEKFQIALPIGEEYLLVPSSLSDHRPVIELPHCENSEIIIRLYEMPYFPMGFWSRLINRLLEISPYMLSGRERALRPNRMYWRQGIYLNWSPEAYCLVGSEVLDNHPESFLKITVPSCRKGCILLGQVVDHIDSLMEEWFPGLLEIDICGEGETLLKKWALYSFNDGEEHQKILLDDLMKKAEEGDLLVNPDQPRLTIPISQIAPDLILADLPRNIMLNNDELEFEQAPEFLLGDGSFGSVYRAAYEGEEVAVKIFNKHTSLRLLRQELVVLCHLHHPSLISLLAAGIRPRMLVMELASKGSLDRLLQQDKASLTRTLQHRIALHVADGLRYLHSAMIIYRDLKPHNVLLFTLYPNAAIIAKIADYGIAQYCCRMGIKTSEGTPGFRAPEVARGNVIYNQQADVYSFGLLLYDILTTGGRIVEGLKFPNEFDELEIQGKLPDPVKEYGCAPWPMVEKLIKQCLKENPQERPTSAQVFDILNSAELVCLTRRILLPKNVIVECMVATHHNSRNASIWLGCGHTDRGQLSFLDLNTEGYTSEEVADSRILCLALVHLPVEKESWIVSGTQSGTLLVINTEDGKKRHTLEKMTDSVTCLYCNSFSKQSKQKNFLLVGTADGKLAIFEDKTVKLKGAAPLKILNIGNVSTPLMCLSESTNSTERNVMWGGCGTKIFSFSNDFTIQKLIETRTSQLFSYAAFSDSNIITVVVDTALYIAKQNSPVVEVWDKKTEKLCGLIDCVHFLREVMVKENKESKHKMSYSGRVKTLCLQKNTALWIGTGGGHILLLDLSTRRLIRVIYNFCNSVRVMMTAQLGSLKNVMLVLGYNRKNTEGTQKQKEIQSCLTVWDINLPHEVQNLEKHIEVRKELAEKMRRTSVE

Another experiment concerns the target MYLK (Homo sapiens, UniProt Q15746). In words: MYLK Assay (LanthaScreen Eu Kinase Binding Assay). As to conditions: 5 nM MYLK, 30 nM tracer 236, RT 1 h; read-out: MYLK Activities: IC50. How it is done: In the assay LanthaScreen™ Eu Kinase Binding Assay by Invitrogen Corporation (Carlsbad) the effect of invention of a compound on the phosphorylation is determined by measurement of fluorescence intensity emission ratio based on the binding and displacement of a proprietary, Alexa Fluor® 647-labeled, ATP-competitive kinase inhibitor scaffold (kinase tracer) to the kinase of interest as described above.
To the wells of an 384 well small volume plate (Greiner, Frickenhausen) are added (i) the compound under test in 5% is DMSO/distilled water (5 μl), (ii) 5 μl of the kinase antibody mixture resulting in a final concentration 5 nM MYLK, 2 nM EU-Anti-GST antibody in 1× kinase buffer A. The reaction was started with addition of (iii) 5 μl resulting in a final concentration of 30 nM tracer 236. The assay plate was incubated at RT for 1 h and fluorescence intensity readings were collected using a TECAN M1000 at two wavelengths of λex 340/λem 615 nm and λex 340/λem 665 nm with a delay time of 100 μs and an integration time of 200 μs after 60 minutes. The emission ratio was calculated by division of the acceptor/tracer emission ([…]) by the antibody/donor emission ([…]). The inhibitor concentration was plotted versus the emission ratio to determine the IC50 using XLFit 5.0 (IDBS, Guildford) to fit to a sigmoidal dose response curve with a variable slope.

The target of another experiment is T1, SYK kinase (Homo sapiens, UniProt P43405).
T1 construct: purchased Invitrogen, Carlsbad
The experiment in a line: SYK Assay (OMNIA KINASE ASSAY, SOX peptide fluorescence). The experiment is classed as biochemical. As to conditions: apparent Ki calculated from the IC50 using the Cheng-Prusoff equation; 1 mM ATP, 30° C.; read-out: SYK Activities: Ki. An outline of the steps: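 Continuous Omnia assay: SYK phosphorylation of SOX-labelled Tyr 7 peptide (10 µM) with 1 mM ATP and 0.2 mM DTT at 30 °C. Fluorescence (ex 360/em 485 nm) read every 30 s for 30 min. Reaction velocity versus inhibitor concentration gives IC50, converted to apparent Ki by Cheng-Prusoff.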

Sequence of MYLK (Q15746 whole entry): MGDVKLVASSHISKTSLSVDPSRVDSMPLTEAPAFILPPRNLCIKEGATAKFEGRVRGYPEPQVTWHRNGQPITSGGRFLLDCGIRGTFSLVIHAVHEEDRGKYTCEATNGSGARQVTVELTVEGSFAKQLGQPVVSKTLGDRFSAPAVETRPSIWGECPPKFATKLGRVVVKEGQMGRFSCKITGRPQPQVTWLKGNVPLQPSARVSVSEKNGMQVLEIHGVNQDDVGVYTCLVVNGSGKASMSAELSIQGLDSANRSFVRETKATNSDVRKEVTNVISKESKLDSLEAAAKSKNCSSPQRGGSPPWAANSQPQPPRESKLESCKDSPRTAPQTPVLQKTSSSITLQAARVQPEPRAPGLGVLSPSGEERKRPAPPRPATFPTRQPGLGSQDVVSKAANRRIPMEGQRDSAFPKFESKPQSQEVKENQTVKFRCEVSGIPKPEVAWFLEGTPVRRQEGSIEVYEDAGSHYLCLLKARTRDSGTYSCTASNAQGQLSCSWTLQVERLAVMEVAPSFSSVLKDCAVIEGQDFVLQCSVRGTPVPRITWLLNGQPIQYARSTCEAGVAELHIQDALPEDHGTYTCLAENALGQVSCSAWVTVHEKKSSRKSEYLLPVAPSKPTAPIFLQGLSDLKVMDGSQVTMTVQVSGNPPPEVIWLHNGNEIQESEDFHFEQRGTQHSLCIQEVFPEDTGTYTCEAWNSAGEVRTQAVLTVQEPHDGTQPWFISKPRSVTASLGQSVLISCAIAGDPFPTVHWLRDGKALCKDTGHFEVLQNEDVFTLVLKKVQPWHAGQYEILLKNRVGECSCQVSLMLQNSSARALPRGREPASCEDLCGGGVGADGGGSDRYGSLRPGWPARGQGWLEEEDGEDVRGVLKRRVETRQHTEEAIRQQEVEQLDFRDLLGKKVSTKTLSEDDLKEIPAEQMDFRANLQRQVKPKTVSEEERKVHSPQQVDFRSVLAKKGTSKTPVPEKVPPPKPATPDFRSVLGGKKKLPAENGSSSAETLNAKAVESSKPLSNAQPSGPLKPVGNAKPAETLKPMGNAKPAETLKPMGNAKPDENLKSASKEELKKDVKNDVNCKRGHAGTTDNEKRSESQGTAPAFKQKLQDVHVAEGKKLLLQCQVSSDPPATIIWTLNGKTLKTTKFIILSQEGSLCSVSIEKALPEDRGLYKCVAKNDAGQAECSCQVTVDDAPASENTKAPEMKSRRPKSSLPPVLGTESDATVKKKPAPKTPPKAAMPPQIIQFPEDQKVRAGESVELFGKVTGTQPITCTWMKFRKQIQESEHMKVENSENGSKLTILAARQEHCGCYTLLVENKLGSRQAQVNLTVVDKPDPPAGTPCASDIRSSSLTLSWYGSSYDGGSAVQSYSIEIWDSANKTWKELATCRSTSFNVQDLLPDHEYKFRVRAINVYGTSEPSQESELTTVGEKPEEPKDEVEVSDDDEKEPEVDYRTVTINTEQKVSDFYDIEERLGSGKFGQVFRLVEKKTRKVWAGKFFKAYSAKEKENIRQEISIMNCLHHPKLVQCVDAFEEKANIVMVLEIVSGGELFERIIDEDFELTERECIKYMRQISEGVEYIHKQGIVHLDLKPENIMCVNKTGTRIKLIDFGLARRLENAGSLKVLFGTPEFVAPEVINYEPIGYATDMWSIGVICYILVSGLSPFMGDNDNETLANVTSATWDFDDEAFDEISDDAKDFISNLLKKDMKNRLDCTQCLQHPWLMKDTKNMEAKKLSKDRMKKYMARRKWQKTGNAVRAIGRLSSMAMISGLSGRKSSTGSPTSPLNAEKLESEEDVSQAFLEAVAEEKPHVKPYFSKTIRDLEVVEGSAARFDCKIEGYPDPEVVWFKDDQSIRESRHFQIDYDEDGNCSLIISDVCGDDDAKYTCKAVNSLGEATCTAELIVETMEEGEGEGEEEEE

As to `c1ccc2sc(-c3nc(Nc4ccc5c(c4)NCCO5)c4[nH]ncc4n3)nc2c1` [Example #97, N-(5-(benzo[d]thiazol-2-yl)-1H-pyrazolo[4,3-d]pyrimidin-7-yl)-3,4-dihydro-2H-benzo[b][1,4]oxazin-6-amine], the IC50 at LRRK2 is 100 to 1000 nM; on MYLK it was below 5000 nM. For the same compound, the Ki at SYK kinase was 10 to 100 nM.
`CN1CCN(c2ccc(Nc3nc(-c4cccc(-c5cccnc5)c4)nc4cn[nH]c34)cc2)CC1` [Example #99, N-(4-(4-methylpiperazin-1-yl)phenyl)-5-(3-(pyridin-3-yl)phenyl)-1H-pyrazolo[4,3-d]pyrimidin-7-amine]: the IC50 was 100 to 1000 nM on LRRK2 and below 5000 nM at MYLK. The Ki at SYK kinase was below 10 nM.
For `CN(C)c1cccc(Nc2nc(-c3ccsc3)nc3cn[nH]c23)c1` [Example #114, N1,N1-dimethyl-N3-(5-(thiophen-3-yl)-1H-pyrazolo[4,3-d]pyrimidin-7-yl)benzene-1,3-diamine], the IC50 at LRRK2 is 100 to 1000 nM; on MYLK, below 5000 nM. Moreover, the Ki at SYK kinase is 10 to 100 nM.
In the case of `Nc1cccc(Nc2nc(-c3ccsc3)nc3cn[nH]c23)c1` [Example #117, N1-(5-(thiophen-3-yl)-1H-pyrazolo[4,3-d]pyrimidin-7-yl)benzene-1,3-diamine], the IC50 is 10 to 100 nM on LRRK2 and below 5000 nM on MYLK. At SYK kinase, the Ki was below 10 nM.
The matching figures for `CN1CCN(c2ccc(Nc3nc(-c4ccsc4)nc4cn[nH]c34)cn2)CC1` [Example #118, N-(6-(4-methylpiperazin-1-yl)pyridin-3-yl)-5-(thiophen-3-yl)-1H-pyrazolo[4,3-d]pyrimidin-7-amine]: 10 to 100 nM, below 5000 nM and below 10 nM.
The matching figures for `CN(C)Cc1ccc(Nc2nc(-c3ccccc3)nc3cn[nH]c23)cc1` [Example #120, N-(4-((dimethylamino)methyl)phenyl)-5-phenyl-1H-pyrazolo[4,3-d]pyrimidin-7-amine]: 100 to 1000 nM, below 5000 nM and 10 to 100 nM.
The matching figures for `c1ccn2cc(-c3nc(Nc4ccc5cn[nH]c5c4)c4[nH]ncc4n3)nc2c1` [Example #127, 5-(imidazo[1,2-a]pyridin-2-yl)-N-(1H-indazol-6-yl)-1H-pyrazolo[4,3-d]pyrimidin-7-amine]: 100 to 1000 nM, below 5000 nM and 10 to 100 nM.
`COc1cccc(-c2nc(Nc3ccc(CN4CCN(C)CC4)cc3)c3[nH]ncc3n2)c1` [Example #131, 5-(3-methoxyphenyl)-N-(4-((4-methylpiperazin-1-yl)methyl)phenyl)-1H-pyrazolo[4,3-d]pyrimidin-7-amine]: the IC50 on LRRK2 is 100 to 1000 nM; on MYLK, below 5000 nM. Besides, the Ki at SYK kinase is below 10 nM.
The matching figures for `COc1cccc(-c2nc(Nc3ccc(CN4CCCC4)cc3)c3[nH]ncc3n2)c1` [Example #132, 5-(3-methoxyphenyl)-N-(4-(pyrrolidin-1-ylmethyl)phenyl)-1H-pyrazolo[4,3-d]pyrimidin-7-amine]: 100 to 1000 nM, below 5000 nM and below 10 nM.
Take `CN1CCN(C(=O)c2ccc(Nc3nc(-c4cccs4)nc4cn[nH]c34)cc2)CC1` [Example #134, (4-methylpiperazin-1-yl)(4-((5-(thiophen-2-yl)-1H-pyrazolo[4,3-d]pyrimidin-7-yl)amino)phenyl)methanone]: the IC50 was 100 to 1000 nM at LRRK2 and below 5000 nM on MYLK. Further, the Ki at SYK kinase was below 10 nM.
The matching figures for `CC(=O)N1CCN(c2ccc(Nc3nc(-c4cccs4)nc4cn[nH]c34)cc2)CC1` [Example #138, 1-(4-(4-((5-(thiophen-2-yl)-1H-pyrazolo[4,3-d]pyrimidin-7-yl)amino)phenyl)piperazin-1-yl)ethan-1-one]: 100 to 1000 nM, below 5000 nM and below 10 nM.
The matching figures for `COc1cc(C(=O)N2CCC(N3CCN(C)CC3)CC2)ccc1Nc1nc(-c2cccs2)nc2cn[nH]c12` [Example #139, (3-methoxy-4-((5-(thiophen-2-yl)-1H-pyrazolo[4,3-d]pyrimidin-7-yl)amino)phenyl)(4-(4-methylpiperazin-1-yl)piperidin-1-yl)methanone]: 10 to 100 nM, below 5000 nM and 10 to 100 nM.
As to `O=S1(=O)CCN(c2ccc(Nc3nc(-c4ccsc4)nc4cn[nH]c34)cc2)CC1` [Example #143, 4-(4-((5-(thiophen-3-yl)-1H-pyrazolo[4,3-d]pyrimidin-7-yl)amino)phenyl)thiomorpholine 1,1-dioxide], the figures for the IC50 on LRRK2 and on MYLK were 10 to 100 nM and below 5000 nM, respectively. Moreover, the Ki at SYK kinase is below 10 nM.
The matching figures for `CC(=O)N1CCN(c2ccc(Nc3nc(-c4ccsc4)nc4cn[nH]c34)cc2)CC1` [Example #144, 1-(4-(4-((5-(thiophen-3-yl)-1H-pyrazolo[4,3-d]pyrimidin-7-yl)amino)phenyl)piperazin-1-yl)ethan-1-one]: below 10 nM, below 5000 nM and below 10 nM.
The matching figures for `CN1CCN(C(=O)c2ccc(Nc3nc(-c4ccsc4)nc4cn[nH]c34)cc2)CC1` [Example #147, (4-methylpiperazin-1-yl)(4-((5-(thiophen-3-yl)-1H-pyrazolo[4,3-d]pyrimidin-7-yl)amino)phenyl)methanone]: 10 to 100 nM, below 5000 nM and 10 to 100 nM.
The matching figures for `CC(C)(C)N1CCN(c2ccc(Nc3nc(-c4ccsc4)nc4cn[nH]c34)cc2)CC1` [Example #161, N-(4-(4-(tert-butyl)piperazin-1-yl)phenyl)-5-(thiophen-3-yl)-1H-pyrazolo[4,3-d]pyrimidin-7-amine]: 10 to 100 nM, below 5000 nM and below 10 nM.
On to `CC(C)(C)N1CCN(c2ccc(Nc3nc(-c4cccs4)nc4cn[nH]c34)cc2)CC1` [Example #163, N-(4-(4-(tert-butyl)piperazin-1-yl)phenyl)-5-(thiophen-2-yl)-1H-pyrazolo[4,3-d]pyrimidin-7-amine], for which the half-inhibitory concentration (IC50) at LRRK2 is 100 to 1000 nM; at MYLK, below 5000 nM. The Ki on SYK kinase was below 10 nM.
With `COc1ccc(-c2nc(Nc3ccc(N4CCN(C(C)(C)C)CC4)cc3)c3[nH]ncc3n2)cc1` [Example #172, N-(4-(4-(tert-butyl)piperazin-1-yl)phenyl)-5-(4-methoxyphenyl)-1H-pyrazolo[4,3-d]pyrimidin-7-amine], the IC50 on LRRK2 is 100 to 1000 nM; at MYLK, below 5000 nM. Further, on SYK kinase, the Ki is below 10 nM.
Take `CN1CCN(c2ccc(Nc3nc(-c4nccs4)nc4cn[nH]c34)cc2)CC1` [Example #179, N-(4-(4-methylpiperazin-1-yl)phenyl)-5-(thiazol-2-yl)-1H-pyrazolo[4,3-d]pyrimidin-7-amine]: the IC50 is 100 to 1000 nM at LRRK2 and below 5000 nM at MYLK. The Ki at SYK kinase is below 10 nM.
In the case of `CN1CCN(c2ccc(Nc3nc(-c4cccc(S(N)(=O)=O)c4)nc4cn[nH]c34)cc2)CC1` [Example #182, 3-(7-((4-(4-methylpiperazin-1-yl)phenyl)amino)-1H-pyrazolo[4,3-d]pyrimidin-5-yl)benzenesulfonamide], the IC50 at LRRK2 is 10 to 100 nM; on MYLK, below 5000 nM. Moreover, the Ki on SYK kinase is below 10 nM.
Regarding `CN1CCN(c2ccc(Nc3nc(-c4cccc(NS(C)(=O)=O)c4)nc4cn[nH]c34)cc2)CC1` [Example #187, N-(3-(7-((4-(4-methylpiperazin-1-yl)phenyl)amino)-1H-pyrazolo[4,3-d]pyrimidin-5-yl)phenyl)methanesulfonamide], the IC50 was 100 to 1000 nM on LRRK2 and below 5000 nM at MYLK. Also, the Ki on SYK kinase was below 10 nM.
The matching figures for `CS(=O)(=O)Nc1cccc(-c2nc(Nc3ccc(N4CCNCC4)cc3)c3[nH]ncc3n2)c1` [Example #188, N-(3-(7-((4-(piperazin-1-yl)phenyl)amino)-1H-pyrazolo[4,3-d]pyrimidin-5-yl)phenyl)methanesulfonamide]: 100 to 1000 nM, below 5000 nM and below 10 nM.
The matching figures for `COc1ccc(Nc2nc(-c3cccc(NS(C)(=O)=O)c3)nc3cn[nH]c23)cc1OC` [Example #189, N-(3-(7-((3,4-dimethoxyphenyl)amino)-1H-pyrazolo[4,3-d]pyrimidin-5-yl)phenyl)methanesulfonamide]: 100 to 1000 nM, below 5000 nM and below 10 nM.
